According to US5214067A, “Fungicidal compositions and method” (Merck & Co., Inc., priority 1990, dated 1993):
Converted amounts (≈) assume the structure as drawn.

Assays:
C. albicans = test: Synergistic and fungicidal effect: viable cell count (CFU/ml) of exponential phase C. albicans culture over time, drugs alone and in combination; format: cell-based, Candida albicans; details: β-lactone 3.1 μg/ml, pyranyl glycine ester 2 μg/ml, alone or together
Method: Synergistic and fungicidal effects were determined by treating exponential phase C. albicans culture with β-Lactone and pyranyl glycine ester at respective MIC level alone and in combination. Exponential phase cultures were prepared by diluting an overnight culture 1:50 or 1:1000 YNB/G. After incubating the diluted cells 7 or 17 hrs. at 37° C., the exponential phase cells were diluted in YNB/G to A600 =0.004u/ml to obtain 3000 cfu/ml.
10 microliters (μl) of β-lactone compound or pyranyl glycine ester compound prepared in DMSO was added to 1 ml of diluted exponential phase cells. The tubes were incubated at 37° C. at 250 rpm for about 24 hours. Periodically, aliquots were diluted in 0.9% saline and plated on Sabouraud dextrose agar plates to determine the number of cfu/ml.

Candida albicans MY 1055 = test: Minimum inhibitory concentration (broth dilution) against Candida albicans MY 1055; format: cell-based; details: MY1055, C. albicans MY 1055, YNB/G, 37° C., 250 rpm, 17 hr
Method: 11-(3-hydroxymethyl-4-oxo-2oxetanyl)-7-methyl-2,4-undecadienoic acid (β-lactone compound), was solubilized in 100 percent dimethylsulfoxide (DMSO). Twofold dilutions were made with DMSO to obtain final drug concentrations in the broth dilution assay tubes ranging from […].
The Candida albicans, MY 1055 yeast culture, maintained in yeast nitrogen base/glucose (1/2 percent), YNB/G, was transferred to fresh medium and incubated 7 hours at 37° with shaking at 250 rpm. After incubation, each culture was diluted to A600 =0.0004 U/ml which was previously determined to be equal to 3000 cfu/ml (colony forming units per milliliter).
1 milliliter of YNB/G inoculated with yeast culture was added to sterile test tubes. The tubes were incubated at 250 rpm, 37° C. for 17 hr. The minimum inhibitory concentration (MIC) was recorded as the lowest concentration of drug […].
In a similar manner, the pyranyl ester was solubilized in dimethyl sulfoxide and dilution assay tubes from […] prepared. […] The MIC against C. C. albicans MY 1055 was determined to be 2 μg/ml.

[1] = time 2 hours, no drug 4.45 × 10^3
[2] = time 4.5 hours, no drug 1.75 × 10^4
[3] = time 7.5 hours, no drug 1.10 × 10^5
[4] = time 16.0 hours, no drug 5.35 × 10^6
[5] = time 20.5 hours, no drug 5.30 × 10^7
[6] = time 24.0 hours, no drug 7.65 × 10^7

Row | MIC (Candida albicans MY 1055) [µg/mL] | SMILES | Fungal Growth (CFU/ML) (C. albicans; time 0 hours (start), 37° C.) | Fungal Growth (CFU/ML) (C. albicans; [1]) | Fungal Growth (CFU/ML) (C. albicans; [2]) | Fungal Growth (CFU/ML) (C. albicans; [3]) | Fungal Growth (CFU/ML) (C. albicans; [4]) | Fungal Growth (CFU/ML) (C. albicans; [5]) | Fungal Growth (CFU/ML) (C. albicans; [6])
1 | 2 (≈ 5.93 µM) | CCCC=CC=CC=C(C)C1OCC(C)C(OC)C1OC(=O)CN (stereo not shown) [Pyranyl Glycine Ester Compound, (2,3,4,5)-tetrahydro-4-methoxy-5-methyl-2-(1-methyl-1,3,5-nonatrienyl)-2-pyran-3-yl-glycine] | 2.70 × 10^3 CFU/ML | 6.05 × 10^3 CFU/ML | 9.60 × 10^3 CFU/ML | 1.40 × 10^4 CFU/ML | 1.00 × 10^5 CFU/ML | 1.02 × 10^6 CFU/ML | 1.37 × 10^6 CFU/ML
2 | 3.1 (≈ 9.56 µM) | CC(=CC(=O)O)C=C(C)CC(C)CCCCC1OC(=O)C1CO (stereo not drawn) [β-Lactone Compound] | 2.70 × 10^3 CFU/ML | 5.95 × 10^3 CFU/ML | 4.10 × 10^3 CFU/ML | 4.55 × 10^3 CFU/ML | 1.70 × 10^3 CFU/ML | 1.50 × 10^3 CFU/ML | 1.50 × 10^3 CFU/ML
